# Starred links: 1 amine or outer side, 2 acyl side, 3 side chain; linkers in the order of their positions; H or OH if unused. Positions of bridges follow the written chain, without caps; N, C: chain ends. Non-standard residues stand in square brackets, D forms with d. Residues, ends and D or L forms follow the SMILES beside them. Groups on a side chain read outwards from the residue. *: point of attachment. X15 = NC(=O)[C@H](CCCCN*)NC(=O)COCCOCCNC(=O)COCCOCCNC(=O)CC[C@H](NC(=O)CC[C@H](NC(=O)CCCCCCCCCCCCCCCC(=O)O)C(=O)O)C(=O)O; X11 = NC(=O)[C@H](CCCCN*)NC(=O)CC[C@H](NC(=O)CC[C@H](NC(=O)CCCCCCCCCCCCCCCC(=O)O)C(=O)O)C(=O)O; X3 = NC(=O)[C@H](CCCCN*)NC(=O)CC[C@H](NC(=O)CC[C@H](NC(=O)CCCCCCCCCCCCCCC(=O)O)C(=O)O)C(=O)O; X10 = NC(=O)[C@H](CCCCN*)NC(=O)CC[C@H](NC(=O)CC[C@H](NC(=O)CCCc1ccc(I)cc1)C(=O)O)C(=O)O; Trp(1-CH2CO) = O=C([C@H](Cc1cn(CC(=O)[*:3])c2ccccc12)N[*:1])[*:2]; Trp(5-OMe) = COc1ccc2[nH]cc(C[C@H](N)C(=O)O)c2c1; Butanoyl(4-(4-I-phenyl)) = O=C(CCCc1ccc(I)cc1)*; Trp(5-OH) = N[C@@H](Cc1c[nH]c2ccc(O)cc12)C(=O)O; Phe(4-COOH) = N[C@@H](Cc1ccc(C(=O)O)cc1)C(=O)O; Piperazinyl(4-CH2COOH) = O=C(O)CN1CCN(*)CC1; X7 = O=C(O)CN1CCC(N[*:1])(C(=O)[*:2])CC1; γGlu = O=C(O)[C@H](CCC(=O)[*:2])N[*:1]; Hexanoyl(6-Ph) = O=C(CCCCCc1ccccc1)*; X9 = O=C(CCCc1ccc(-c2ccccc2)cc1)*; hArg = N=C(N)NCCCC[C@H](N)C(=O)O; 4Pal = N[C@@H](Cc1ccncc1)C(=O)O; NMeK = CN[C@@H](CCCCN)C(=O)O; Aib = CC(C)(N)C(=O)O; CO = O=C([*:1])[*:2]
# Target: T1, Recombinant human GhR-Fc protein (Homo sapiens, UniProt P10912)
# T1 construct: purchased R&D Systems
# T1 sequence (P10912 with tags, fused parts or gaps limits assumed): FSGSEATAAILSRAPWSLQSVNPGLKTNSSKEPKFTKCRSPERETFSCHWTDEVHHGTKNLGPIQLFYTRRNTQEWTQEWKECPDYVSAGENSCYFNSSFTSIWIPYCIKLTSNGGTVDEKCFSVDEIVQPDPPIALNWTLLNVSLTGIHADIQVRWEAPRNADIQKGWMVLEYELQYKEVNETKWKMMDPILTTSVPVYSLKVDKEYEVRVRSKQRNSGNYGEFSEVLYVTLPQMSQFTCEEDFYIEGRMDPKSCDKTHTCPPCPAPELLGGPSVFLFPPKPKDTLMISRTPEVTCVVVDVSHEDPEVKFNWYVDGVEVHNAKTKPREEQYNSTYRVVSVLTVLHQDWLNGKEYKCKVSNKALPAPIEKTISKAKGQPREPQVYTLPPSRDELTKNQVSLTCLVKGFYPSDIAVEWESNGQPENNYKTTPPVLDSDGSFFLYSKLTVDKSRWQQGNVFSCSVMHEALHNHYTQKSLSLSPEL
# Test: SPR binding assay (Biacore T200, single-cycle kinetics) of peptides against immobilized human GhR-Fc
# Conditions: not given
# Method: SPR assay was performed using Biacore T200 (cytiva: Former GE Healthcare). After the equilibration of Series S Sensor Chip CM5 (produced by cytiva: Former GE Healthcare) with Running Buffer (HBS-EP with 1% (v/v) DMSO), an EDC/NHS mixture was injected at a flow rate of 10 μL/min for 7 minutes to thereby activate the functional groups on sensor chip. Recombinant human GhR-Fc protein (R&D Systems) in 10 mM Acetate (pH 4.0) was injected immobilized to at a flow rate of 5 μL/min. It took 7 minutes to immobilize the GhR on the substrate surfaces of the sensor chip. Then Ethanolamine was injected at a flow rate of 10 μL/min for 7 minutes. 1M Ethanolamine (aq.) was injected at a flow rate of 10 μL/min for 420 seconds for capping.
# Using these Peptide Samples, kinetics of peptides against human GhR-Fc protein were measured. The method adopted for sample measurement was a single-cycle kinetics method. The analysis was conducted using the evaluation software provided with Biacore T200. A DMSO correction curve obtained by solvent correction measurements was applied for the analysis. Kinetics fitting was done on the difference data obtained by subtracting the baseline data from sample measurement data. KD values were calculated based on the association rate constant (ka) and dissociation rate constant (kd). […]
row,Compound,Kd
1,COc1ccc2[nH]cc(C[C@@H]3NC(=O)[C@H](CC(N)=O)NC(=O)[C@H](CO)NC(=O)[C@H](C(C)C)NC(=O)[C@H](C(C)C)NC(=O)[C@H](CCCCNC(=O)CC[C@H](NC(=O)CCCc4ccc(-c5ccccc5)cc4)C(=O)O)N(C)C(=O)[C@H](Cc4ccc(O)cc4)NC(=O)CSC[C@@H](C(=O)NCC(=O)N4CCC[C@H]4C(=O)N[C@H](CO)C(=O)N[C@H](CO)C(=O)N[C@H](CO)C(N)=O)NC(=O)[C@H](C(C)C)NC(=O)C(C)(C)NC(=O)[C@H](Cc4c[nH]c5ccc(O)cc45)NC(=O)[C@H](CCCCN)NC(=O)[C@H](Cc4ccc(C(=O)O)cc4)NC3=O)c2c1 [Compound 56] ({CH2CO}-Y[NMeK]([γGlu-X9])VVSN[Trp(5-OMe)][Phe(4-COOH)]K[Trp(5-OH)][Aib]VCGP[dS][dS][dS]-NH2; thioether N-13),2.87 nM

# Same assay, conditions: SPR, hGhR; Table 1 bicyclic peptides; KD calculated from ka and kd; read-out: KD
row,Compound,Kd
1,CC(C)[C@@H]1NC(=O)[C@H](C(C)C)NC(=O)[C@@H]2CCCCNC(=O)Cn3cc(c4ccccc43)C[C@H](NC(=O)[C@H](CC(N)=O)NC(=O)[C@H](CO)NC1=O)C(=O)N[C@@H](Cc1ccc(O)cc1)C(=O)N[C@@H](CCCCNC(=O)N1CCN(CC(=O)O)CC1)C(=O)N[C@@H](Cc1c[nH]c3ccc(O)cc13)C(=O)NC(C)(C)C(=O)N[C@@H](C(C)C)C(=O)N[C@H](C(=O)NCCCC[C@H](NC(=O)CC[C@H](NC(=O)CC[C@H](NC(=O)CCCCCCCCCCCCCCC(=O)O)C(=O)O)C(=O)O)C(N)=O)CSCC(=O)N[C@@H](Cc1ccc(C(=O)O)cc1)C(=O)N2C [Compound 17] ({CH2CO}-[Phe(4-COOH)][NMeK]VVSN[Trp(1-CH2CO)]YK([CO-Piperazinyl(4-CH2COOH)])[Trp(5-OH)][Aib]VC-X3; lactam 2-7; thioether N-13),4.1 nM
2,CC(C)[C@@H]1NC(=O)[C@H](C(C)C)NC(=O)[C@@H]2CCCCNC(=O)Cn3cc(c4ccccc43)C[C@H](NC(=O)[C@H](CC(N)=O)NC(=O)[C@H](CO)NC1=O)C(=O)N[C@@H](Cc1ccc(C(=O)O)cc1)C(=O)N[C@@H](CCCCNC(=N)N)C(=O)N[C@@H](Cc1c[nH]c3ccc(O)cc13)C(=O)NC(C)(C)C(=O)N[C@@H](C(C)C)C(=O)N[C@H](C(=O)NCCCC[C@H](NC(=O)CC[C@H](NC(=O)CC[C@H](NC(=O)CCCc1ccc(I)cc1)C(=O)O)C(=O)O)C(N)=O)CSCC(=O)N[C@@H](Cc1ccc(C(=O)O)cc1)C(=O)N2C [Compound 7] ({CH2CO}-[Phe(4-COOH)][NMeK]VVSN[Trp(1-CH2CO)][Phe(4-COOH)][hArg][Trp(5-OH)][Aib]VC-X10; lactam 2-7; thioether N-13),0.96 nM
3,CC(C)[C@@H]1NC(=O)[C@H](C(C)C)NC(=O)[C@@H]2CCCCNC(=O)Cn3cc(c4ccccc43)C[C@H](NC(=O)[C@H](CC(N)=O)NC(=O)[C@H](CO)NC1=O)C(=O)N[C@@H](Cc1ccc(O)cc1)C(=O)N[C@@H](CCCCN)C(=O)N[C@@H](Cc1c[nH]c3ccc(O)cc13)C(=O)NC1(CCN(CC(=O)O)CC1)C(=O)N[C@@H](C(C)C)C(=O)N[C@H](C(=O)NCCCC[C@H](NC(=O)CC[C@H](NC(=O)CC[C@H](NC(=O)CCCCCCCCCCCCCCC(=O)O)C(=O)O)C(=O)O)C(N)=O)CSCC(=O)N[C@@H](Cc1ccc(C(=O)O)cc1)C(=O)N2C [Compound 18] ({CH2CO}-[Phe(4-COOH)][NMeK]VVSN[Trp(1-CH2CO)]YK[Trp(5-OH)][X7]VC-X3; lactam 2-7; thioether N-13),2.4 nM

# The remaining lines, values ahead:
row,Kd,Compound
1,3.33 nM,CC(C)[C@@H]1NC(=O)[C@H](C(C)C)NC(=O)[C@@H]2CCCCNC(=O)Cn3cc(c4ccccc43)C[C@H](NC(=O)[C@H](CC(N)=O)NC(=O)[C@H](CO)NC1=O)C(=O)N[C@@H](Cc1ccc(C(=O)O)cc1)C(=O)N[C@@H](CCCCN)C(=O)N[C@@H](Cc1c[nH]c3ccc(O)cc13)C(=O)NC(C)(C)C(=O)N[C@@H](C(C)C)C(=O)N[C@H](C(=O)NCCCC[C@H](NC(=O)COCCOCCNC(=O)COCCOCCNC(=O)CC[C@H](NC(=O)CC[C@H](NC(=O)CCCCCCCCCCCCCCCC(=O)O)C(=O)O)C(=O)O)C(N)=O)CSCC(=O)N[C@@H](Cc1ccc(C(=O)O)cc1)C(=O)N2C [Compound 65] ({CH2CO}-[Phe(4-COOH)][NMeK]VVSN[Trp(1-CH2CO)][Phe(4-COOH)]K[Trp(5-OH)][Aib]VC-X15; lactam 2-7; thioether N-13)
2,2.53 nM,CC(C)[C@@H]1NC(=O)[C@H](C(C)C)NC(=O)[C@@H]2CCCCNC(=O)Cn3cc(c4ccccc43)C[C@H](NC(=O)[C@H](CC(N)=O)NC(=O)[C@H](CO)NC1=O)C(=O)N[C@@H](Cc1ccc(C(=O)O)cc1)C(=O)N[C@@H](CCCCN)C(=O)N[C@@H](Cc1c[nH]c3ccc(O)cc13)C(=O)NC(C)(C)C(=O)N[C@@H](C(C)C)C(=O)N[C@H](C(=O)NCCCC[C@H](NC(=O)CC[C@H](NC(=O)CC[C@H](NC(=O)CCCCCCCCCCCCCCCC(=O)O)C(=O)O)C(=O)O)C(N)=O)CSCC(=O)N[C@@H](Cc1ccc(C(=O)O)cc1)C(=O)N2C [Compound 61] ({CH2CO}-[Phe(4-COOH)][NMeK]VVSN[Trp(1-CH2CO)][Phe(4-COOH)]K[Trp(5-OH)][Aib]VC-X11; lactam 2-7; thioether N-13)

# Same assay, conditions: SPR, hGhR; Table 2 monocyclic peptides; KD calculated from ka and kd; read-out: KD
row,Compound,Kd
1,COc1ccc2[nH]cc(C[C@@H]3NC(=O)[C@H](CC(N)=O)NC(=O)[C@H](CO)NC(=O)[C@H](C(C)C)NC(=O)[C@H](C(C)C)NC(=O)[C@H](CCCCNC(=O)CC[C@H](NC(=O)CCCc4ccc(I)cc4)C(=O)O)N(C)C(=O)[C@H](Cc4ccncc4)NC(=O)CSC[C@@H](C(N)=O)NC(=O)[C@H](C(C)C)NC(=O)C(C)(C)NC(=O)[C@H](Cc4c[nH]c5ccc(O)cc45)NC(=O)[C@H](CCCCN)NC(=O)[C@H](Cc4ccc(C(=O)O)cc4)NC3=O)c2c1 [Compound 34] ({CH2CO}-[4Pal][NMeK]([γGlu-Butanoyl(4-(4-I-phenyl))])VVSN[Trp(5-OMe)][Phe(4-COOH)]K[Trp(5-OH)][Aib]VC-NH2; thioether N-13),2.77 nM
2,COc1ccc2[nH]cc(C[C@@H]3NC(=O)[C@H](CC(N)=O)NC(=O)[C@H](CO)NC(=O)[C@H](C(C)C)NC(=O)[C@H](C(C)C)NC(=O)[C@H](CCCCNC(=O)CC[C@H](NC(=O)CCCc4ccc(I)cc4)C(=O)O)N(C)C(=O)[C@H](Cc4ccc(C(=O)O)cc4)NC(=O)CSC[C@@H](C(=O)NCC(=O)N4CCC[C@H]4C(=O)N[C@H](CO)C(=O)N[C@H](CO)C(=O)N[C@H](CO)C(N)=O)NC(=O)[C@H](C(C)C)NC(=O)C(C)(C)NC(=O)[C@H](Cc4c[nH]c5ccc(O)cc45)NC(=O)[C@H](CCCCN)NC(=O)[C@H](Cc4ccc(C(=O)O)cc4)NC3=O)c2c1 [Compound 41] ({CH2CO}-[Phe(4-COOH)][NMeK]([γGlu-Butanoyl(4-(4-I-phenyl))])VVSN[Trp(5-OMe)][Phe(4-COOH)]K[Trp(5-OH)][Aib]VCGP[dS][dS][dS]-NH2; thioether N-13),2.63 nM
3,COc1ccc2[nH]cc(C[C@@H]3NC(=O)[C@H](CC(N)=O)NC(=O)[C@H](CO)NC(=O)[C@H](C(C)C)NC(=O)[C@H](C(C)C)NC(=O)[C@H](CCCCNC(=O)CC[C@H](NC(=O)CCCc4ccc(I)cc4)C(=O)O)N(C)C(=O)[C@H](Cc4ccc(C(=O)O)cc4)NC(=O)CSC[C@@H](C(N)=O)NC(=O)[C@H](C(C)C)NC(=O)C(C)(C)NC(=O)[C@H](Cc4c[nH]c5ccc(O)cc45)NC(=O)[C@H](CCCCN)NC(=O)[C@H](Cc4ccc(C(=O)O)cc4)NC3=O)c2c1 [Compound 39] ({CH2CO}-[Phe(4-COOH)][NMeK]([γGlu-Butanoyl(4-(4-I-phenyl))])VVSN[Trp(5-OMe)][Phe(4-COOH)]K[Trp(5-OH)][Aib]VC-NH2; thioether N-13),2.19 nM

# The next lines start with the values.
row,Kd,Compound
1,3.36 nM,COc1ccc2[nH]cc(C[C@@H]3NC(=O)[C@H](CC(N)=O)NC(=O)[C@H](CO)NC(=O)[C@H](C(C)C)NC(=O)[C@H](C(C)C)NC(=O)[C@H](CCCCNC(=O)CC[C@H](NC(=O)CC[C@H](NC(=O)CCCc4ccc(I)cc4)C(=O)O)C(=O)O)N(C)C(=O)[C@H](Cc4ccc(O)cc4)NC(=O)CSC[C@@H](C(N)=O)NC(=O)[C@H](C(C)C)NC(=O)C(C)(C)NC(=O)[C@H](Cc4c[nH]c5ccc(O)cc45)NC(=O)[C@H](CCCCN)NC(=O)[C@H](Cc4ccc(C(=O)O)cc4)NC3=O)c2c1 [Compound 53] ({CH2CO}-Y[NMeK]([γGlu-γGlu-Butanoyl(4-(4-I-phenyl))])VVSN[Trp(5-OMe)][Phe(4-COOH)]K[Trp(5-OH)][Aib]VC-NH2; thioether N-13)
2,1.25 nM,COc1ccc2[nH]cc(C[C@@H]3NC(=O)[C@H](CC(N)=O)NC(=O)[C@H](CO)NC(=O)[C@H](C(C)C)NC(=O)[C@H](C(C)C)NC(=O)[C@H](CCCCNC(=O)CC[C@H](NC(=O)CCCCCc4ccccc4)C(=O)O)N(C)C(=O)[C@H](Cc4ccc(O)cc4)NC(=O)CSC[C@@H](C(=O)NCC(=O)N4CCC[C@H]4C(=O)N[C@H](CO)C(=O)N[C@H](CO)C(=O)N[C@H](CO)C(N)=O)NC(=O)[C@H](C(C)C)NC(=O)C(C)(C)NC(=O)[C@H](Cc4c[nH]c5ccc(O)cc45)NC(=O)[C@H](CCCCN)NC(=O)[C@H](Cc4ccc(C(=O)O)cc4)NC3=O)c2c1 [Compound 57] ({CH2CO}-Y[NMeK]([γGlu-Hexanoyl(6-Ph)])VVSN[Trp(5-OMe)][Phe(4-COOH)]K[Trp(5-OH)][Aib]VCGP[dS][dS][dS]-NH2; thioether N-13)

# Source: patent US12415834B2, “GhR-binding peptide and composition comprising same” (priority 2021, dated 2025)
